The conditions of data set [1]: children treated with racemic methylphenidate; cited from earlier work.
The subject of data set [2] is rats. Put plainly: D-MPH versus L-MPH reversal of isoflurane anesthesia, loss of righting reflex (LORR). It counts as in vivo, rat. To be noted: for rats with restoration of consciousness: intravenous dose of 0.5 mg/kg; for rats with restoration of consciousness / rate of % recovery of consciousness / time to emergence, D-MPH compared with L-MPH: isoflurane anesthesia; for reversal of isoflurane-induced general anesthesia: intravenous, rat animal model; for rate of % recovery of consciousness / time to emergence, D-MPH compared with L-MPH: FIG. 7. From the text:
Pure D-MPH (Focalin) is currently available in oral form for Attention Deficit Hyperactivity Disorder (ADHD), but it is not available for intravenous use.

Data set [3] relates to Male Sprague-Dawley rats. The data set is described as follows: Return of righting during continuous isoflurane general anesthesia. It counts as in vivo, rat. The source says: Anesthetizing Protocol. Rats were anesthetized in an induction chamber with 2-3% isoflurane in oxygen prior to placement of a lateral tail vein intravenous catheter (24 gauge, 19 mm). A rectal temperature probe was inserted and the animal was placed in a cylindrical acrylic anesthetizing chamber. The chamber was custom-built and equipped with ports for anesthetic gas delivery, sampling, and scavenging, as well as intravenous drug administration. A heating pad was placed under the chamber to keep the animal warm, and the body temperature was kept between 36.5° C. and 37.4° C.
The rat was positioned supine in the anesthetizing chamber and the inhaled concentration of isoflurane was initially fixed at 2.0% for 20 minutes, then reduced to 0.8% over 15-20 minutes, and then maintained at 0.8% for 40 minutes. If the rat made any purposeful movement, the isoflurane concentration was increased by 0.1% and maintained for another 40 minutes. This process was repeated until the final dose of isoflurane sufficient to maintain loss of righting reflex was established, and this dose was administered throughout the remainder of the experiment. This protocol was based on previously published methods described by Alkire et al.^4,11 After the final 40-minute equilibration period, normal saline (2 ml) was administered and the rectal temperature probe was removed. Five minutes later, methylphenidate was administered.
Prism 4.03 (Graphpad Software, San Diego, Calif.) and Matlab (Mathworks, Natick, Mass.) were used for statistical analysis and where possible, results are reported in terms of 95% confidence intervals based on z-tests, t-tests or Mann-Whitney tests. […] For this computation the inventors assumed a binomial model as the sampling density or likelihood function for the propensity of animals in a given group to have return of the righting response. The inventors took as the prior density for each group the uniform density on the interval (0, 1) because it is uninformative. Because of the conjugacy between the prior and the likelihood the posterior density for each group is a beta density.^17 The posterior densities for the differences in the proportion of animals that had return of righting were then computed by using standard Matlab simulation procedures. Instead of p-values for the Bayesian analyses the inventors computed the posterior probability that the propensity to right was greater in on group compared to the other.

Data set [4] deals with Male Sprague-Dawley rats. The data set is described as follows: Electroencephalogram recording and spectral analysis during continuous isoflurane. The format is in vivo, rat. As to conditions: droperidol 0.5 mg/kg IV; isoflurane 1.0%. The procedure: Electroencephalogram electrode placement, recording, and spectral analysis. Extradural electroencephalogram electrodes were surgically implanted at least 7 days prior to recording. General anesthesia was induced with xylazine (5-10 mg/kg IP) and ketamine (50-100 mg/kg IP), and supplemented with isoflurane (1-2%). A microdrill was used to make four holes at the following stereotactic coordinates: A0L0, A6L3, A6L-3, and A10L2 relative to the lambda.^12 Polytetrafluoroethylene coated, 200 μm diameter stainless steel electrode wires (A-M Systems, Sequim, Wash.) were inserted and secured with small stainless steel screws, and permanently fixed with dental acrylic cement. Carprofen (5 mg/kg SC) was administered for analgesia on the day of surgery, as well as on post-operative days 1, and 2. The potential difference between electrodes A0L0 and A6L3, or between electrodes A0L0 and A6L-3 (whichever gave less motion artifact), was referenced to A10L2 and recorded using a QP511 Quad AC Amplifier System (Grass Instruments, West Warwick, R.I.) and a USB-6009 14-bit data acquisition board (National Instruments, Austin, Tex.). Data was filtered between 0.3-100 Hz. No line filter was used. The sampling rate was 512 Hz. After baseline recordings were taken for 10 minutes while awake, rats were anesthetized with isoflurane and placed in the anesthetizing chamber. […] Therefore the inventors performed the electroencephalogram experiments in the prone position with the isoflurane dose fixed at 1.0%. These modifications allowed us to minimize electroencephalogram motion artifacts without restraining the animals. After a minimum isoflurane exposure of 40 minutes, normal saline was administered and the temperature probe was removed. Five minutes later, methylphenidate was administered. Spectral analysis was performed using Matlab 7.11 (Mathworks, Natick, Mass.) and the Chronux software (Cold Spring Harbor, N.Y.). 13 Spectrograms were calculated using sliding windows of 2 sec duration stepped through 0.05 sec. For each window, multitaper spectrum estimation was performed using 5 tapers. […]

In data set [5] the test system is mice. As to conditions: cited from earlier work.
The subject of data set [6] is rats. As to conditions: 3 mg/kg of droperidol; cited from earlier work.
For data set [7], the system named is mice. To be noted: uninstrumented mice, rotating anesthetizing chamber; cited from earlier work.

Here are results for four compounds from patent publication US11723589B2 (The General Hospital Corporation, priority 2010, dated 2023).

“And” between values parts separate entries of the source, which are not always exact repeats. Identical values can stand only once.

As to `COC(=O)C(c1ccccc1)C1CCCCN1` [D-MPH, D-threo-methylphenidate], the “increase in plasma levels” value in data set [1] is reported as 5 fold. In addition, in the data set on rats [2], the “rats with restoration of consciousness” value is recorded as 83%; the “reversal of isoflurane-induced general anesthesia” value is recorded as “rapidly reversed isoflurane-induced general anesthesia”; the “rate of % recovery of consciousness / time to emergence, D-MPH compared with L-MPH” value is “at a quicker rate than L-MPH”. Moreover, the “rate of % recovery of consciousness / time to emergence, D-MPH compared with L-MPH” value with rats [2] (listed as D-MGH) is “faster”.

As to `COC(=O)[C@@H](c1ccccc1)[C@@H]1CCCCN1` [L-MPH, L-threo-methylphenidate], in the data set on rats [2], the “rats with restoration of consciousness” value is on record as 33% and the “reversal of isoflurane-induced general anesthesia” value is reported as “rapidly reversed isoflurane-induced general anesthesia”.

`O=C(CCCN1CC=C(n2c(=O)[nH]c3ccccc32)CC1)c1ccc(F)cc1` [droperidol]: in the data set with Male Sprague-Dawley rats [3] (droperidol 0.5 mg/kg IV, continuous isoflurane, n=6), the “purposeful movement in response to droperidol” value is given as “None of the animals exhibited purposeful movement”. In addition, in the data set with Male Sprague-Dawley rats [4], the “EEG pattern change after droperidol” value is given as “no appreciable change”. Also, in the data set on mice [5], the “EC50 for loss of righting” value was 40 mg/kg. For the same compound, in the data set with rats [6], the “effect on isoflurane potency” value is “no effect on isoflurane potency”.

Take `FC(F)OC(Cl)C(F)(F)F` (stereo not shown) [isoflurane]: the “dose for loss of righting” value in the data set with mice [7] is reported as 0.81%. For the same compound, the “dose of isoflurane sufficient to maintain loss of righting” value with Male Sprague-Dawley rats [3] (inhaled, rats, mean±SD) is 0.9%±0.1% and 0.9%.
